# Tests used:
# [1] = biological target: T1, CDK12 (aa686-1082)/cyclinK complex (Homo sapiens, UniProt Q9NYV4); assay: In-vitro enzymatic inhibitory activity testing, CDK12 inhibition assay (Caliper EZ Reader II); assay type: biochemical; details: CDK12/cyclinK 50 nM, 180 min at 27° C.; read-out: CDK12 IC50
# T1 construct: A CDK12 (aa686-1082)/cyclinK complex (50 nM)
# Protocol: An assay was carried out in a U-bottom 384-well plate (coming, 4512#), and the reaction temperature was 27° C. CDK7/CyclinH was diluted in an assay buffer (20 mM MES PH 6.75, 0.01% Tween 20, 50 ug/mL BSA, 6 mM MgCl2) to afford a corresponding enzyme solution with the 2.4× concentration. CDK2/CyclinE1 was diluted in an assay buffer (20 mM MES PH 6.75, 0.01% Tween 20, 50 ug/mL BSA, 6 mM MgCl2) to afford a corresponding enzyme solution with the 2.4× concentration. CDK9/CyclinT1 was diluted in an assay buffer (20 mM MES PH 6.75, 0.01% Tween 20, 50 ug/mL BSA, 10 mM MgCl2) to afford a corresponding enzyme solution with the 2.4× concentration. CDK12/CyclinK was diluted in an assay buffer (80 mM MES PH 6.5, 0.01% Tween 20, 50 ug/mL BSA, 10 mM MgCl2) to afford a corresponding enzyme solution with the 2.4 concentration. A compound was dissolved in dimethyl sulfoxide (DMSO) at a concentration of 10 mM. During use, the compound was diluted with DMSO into 10 concentration gradients from 25 nM to 500 uM, and respectively diluted by 8.3 folds in the assay buffer to afford a compound solution with a 6× concentration. A polypeptide substrate and ATP were diluted in the assay buffer to afford a polypeptide substrate and ATP mixed solution with a 2.4× concentration. 2 ul of a test compound solution was mixed with 5 ul of the enzyme solution; after incubation for 10 min, 5 ul of the polypeptide substrate and ATP mixed solution was added; incubation was carried out for 180 min at 27° C.; and then, the reaction was terminated by adding 4 uL of EDTA with a concentration of 120 mM to each sample. […]. Specifically, a CDK7/cyclinH/MAT1 complex (6 nM) and a “5-FAMCD K 7 tide” peptide substrate (2 μM, synthetic fluorophore-labeled peptide with the following sequence: 5-FAM-[…], wherein “5-FAM” refers to 5-carboxyfluorescein) were used for a CDK7 inhibition assay. A CDK9/cyclinT1 complex (8 nM) and a “5-FAM-CDK9tide” peptide substrate (2 IM, synthetic fluorophore-labeled peptide with the following sequence: 5-FAM-GSRTPMY-NH2, wherein 5-FAM was as defined above and NH2 represented C-terminal amide) were used for a CDK9 inhibition assay. A CDK12 (aa686-1082)/cyclinK complex (50 nM) and “5-FAM-CDK9tide” (2 μM) as defined above were used for a CDK12 inhibition assay. A CDK2/cyclinE1 complex (0.5 nM) and “5-FAM-CDK7tide” (2 μM) as defined above were used for CDK2 inhibition assay.
# (§1) A reaction mixture was analyzed on Caliper EZ Reader II by electrophoretic separation of a fluorogenic substrate and a phosphorylated product. Data were calculated by using GraphPad Prism version 6.0, and IC50 values were adjusted and obtained by using a nonlinear regression model of a dose response curve.
# CDK2/cyclinE1 complex = CDK2/cyclinE1 complex (Homo sapiens, UniProt P24941); assay: In-vitro enzymatic inhibitory activity testing, CDK2 inhibition assay (Caliper EZ Reader II); assay type: biochemical; details: CDK2/cyclinE1 0.5 nM, 180 min at 27° C.
# Protocol: CDK12/CyclinK was diluted in an assay buffer (80 mM MES PH 6.5, 0.01% Tween 20, 50 ug/mL BSA, 10 mM MgCl2) to afford a corresponding enzyme solution with the 2.4 concentration. […] A CDK9/cyclinT1 complex (8 nM) and a “5-FAM-CDK9tide” peptide substrate (2 IM, synthetic fluorophore-labeled peptide with the following sequence: 5-FAM-GSRTPMY-NH2, wherein 5-FAM was as defined above and NH2 represented C-terminal amide) were used for a CDK9 inhibition assay. […] A CDK2/cyclinE1 complex (0.5 nM) and “5-FAM-CDK7tide” (2 μM) as defined above were used for CDK2 inhibition assay.
# as §1
# CDK9/cyclinT1 complex = CDK9/cyclinT1 complex (Homo sapiens, UniProt P50750); assay: In-vitro enzymatic inhibitory activity testing, CDK9 inhibition assay (Caliper EZ Reader II); assay type: biochemical; details: CDK9/cyclinT1 8 nM, 180 min at 27° C.
# Protocol: (§2) CDK12/CyclinK was diluted in an assay buffer (80 mM MES PH 6.5, 0.01% Tween 20, 50 ug/mL BSA, 10 mM MgCl2) to afford a corresponding enzyme solution with the 2.4 concentration. A compound was dissolved in dimethyl sulfoxide (DMSO) at a concentration of 10 mM. […] 2 ul of a test compound solution was mixed with 5 ul of the enzyme solution; after incubation for 10 min, 5 ul of the polypeptide substrate and ATP mixed solution was added; incubation was carried out for 180 min at 27° C.; and then, the reaction was terminated by adding 4 uL of EDTA with a concentration of 120 mM to each sample. […] A CDK9/cyclinT1 complex (8 nM) and a “5-FAM-CDK9tide” peptide substrate (2 IM, synthetic fluorophore-labeled peptide with the following sequence: 5-FAM-GSRTPMY-NH2, wherein 5-FAM was as defined above and NH2 represented C-terminal amide) were used for a CDK9 inhibition assay. […] A CDK2/cyclinE1 complex (0.5 nM) and “5-FAM-CDK7tide” (2 μM) as defined above were used for CDK2 inhibition assay.
# as §1
# [2] = biological target: CDK7/cyclinH/MAT1 complex (Homo sapiens, UniProt P50613); assay: In-vitro enzymatic inhibitory activity testing, CDK7 inhibition assay (Caliper EZ Reader II); assay type: biochemical; details: CDK7/cyclinH/MAT1 6 nM, 180 min at 27° C.
# Protocol: as §2, §1
# [3] = system: human breast cancer cells HCC70; assay: Cell biological activity detection (CyQuant, 72 hours), HCC70; assay type: cell-based; details: incubation for 72 hours
# Protocol: (§3) A2780 and HCC70 cells were subjected to trypsin digestion treatment, and cell suspensions were respectively transferred to 15 mL centrifuge tubes and centrifuged for 5 min at […]) rpm; supernatant was discarded, and resuspension was carried out in a fresh medium (RPMI 1640+10% FBS), after counting, cells were seeded into a 384-well plate at 2000/well (50 μL of 1640+10% FBS medium was added to the 2nd column and the 23rd column of the 384-well plate, and 50 μL of DPBS was added to the surrounding wells). Incubation was carried out overnight in an incubator (37° C., 5% CO2).
# (§4) The compound was added to the well plates the next day. The compound had the highest concentration of 10 μM and was diluted at 1:4, and there were a total of 9 concentrations; and a positive compound Paclitaxel had the highest concentration of 1 μM and was diluted at 1:3, and there were a total of 9 concentrations. The DMSO content in each well was unified to 0.2%. The cell plates were centrifuged for 30 seconds at 800 rpm and placed in an incubator (37° C., 5% CO2) for incubation for 72 hours. On the fourth day, a Cyquant reagent (3×) was formulated according to kit instructions, and formulation was carried out for each 384-well plate according to the following proportions: DPBS 11.568 mL, CyQuant®? Direct nucleic acid stain 72 μL, and CyQuant® Direct background suppressor 360 μL. After uniform mixing, the reagent was placed at room temperature for further use. The cell plates were taken out and equilibrated for 30 min at room temperature, and 25 μL of the Cyquant reagent (3×) per well was dispensed into the cells of the 384-well plates by Multi-drop, and incubation was carried out for more than 60 minutes at 37° C. Acumen plate reading (Acumen setting: an excitation wavelength of 488 nm). IC50 results were analyzed by XLFIT5 from IDBS Company.
# ovarian cancer A2780 = assay: Cell biological activity detection (CyQuant, 72 hours), A2780; assay type: cell-based, human; details: A2780 cells, incubation for 72 hours
# Protocol: as §3, §4
# Chain of CDK7/cyclinH/MAT1 complex (P50613 whole entry, species assumed): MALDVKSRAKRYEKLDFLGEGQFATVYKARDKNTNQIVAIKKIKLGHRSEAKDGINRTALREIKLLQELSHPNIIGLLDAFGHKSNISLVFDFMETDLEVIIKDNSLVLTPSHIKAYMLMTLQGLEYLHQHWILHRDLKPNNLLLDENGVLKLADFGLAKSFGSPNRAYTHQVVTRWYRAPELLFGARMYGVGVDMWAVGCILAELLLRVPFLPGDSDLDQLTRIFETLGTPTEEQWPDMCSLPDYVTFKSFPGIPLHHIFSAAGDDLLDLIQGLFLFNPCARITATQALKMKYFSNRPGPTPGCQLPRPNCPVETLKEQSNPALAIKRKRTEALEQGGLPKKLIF
# Chain of CDK7/cyclinH/MAT1 complex (P51946 whole entry partner, species assumed): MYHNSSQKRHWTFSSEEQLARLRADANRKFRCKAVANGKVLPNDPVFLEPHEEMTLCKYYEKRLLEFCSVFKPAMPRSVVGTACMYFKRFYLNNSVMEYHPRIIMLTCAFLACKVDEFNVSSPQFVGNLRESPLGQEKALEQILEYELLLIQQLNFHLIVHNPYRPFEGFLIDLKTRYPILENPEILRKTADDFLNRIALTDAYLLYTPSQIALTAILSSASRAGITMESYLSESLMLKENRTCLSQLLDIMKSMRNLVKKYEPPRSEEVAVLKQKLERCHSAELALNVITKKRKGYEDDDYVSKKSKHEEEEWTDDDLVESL
# Chain of CDK7/cyclinH/MAT1 complex (P51948 whole entry partner, species assumed): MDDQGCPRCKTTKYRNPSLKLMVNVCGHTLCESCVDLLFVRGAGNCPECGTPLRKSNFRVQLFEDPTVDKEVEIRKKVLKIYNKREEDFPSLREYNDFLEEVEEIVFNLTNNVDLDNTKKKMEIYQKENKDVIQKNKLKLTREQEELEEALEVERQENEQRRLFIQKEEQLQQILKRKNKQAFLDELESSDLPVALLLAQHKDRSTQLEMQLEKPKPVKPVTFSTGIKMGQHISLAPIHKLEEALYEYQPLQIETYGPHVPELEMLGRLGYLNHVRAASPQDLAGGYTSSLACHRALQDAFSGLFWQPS
# T1 sequence (Q9NYV4 686-1082, species assumed): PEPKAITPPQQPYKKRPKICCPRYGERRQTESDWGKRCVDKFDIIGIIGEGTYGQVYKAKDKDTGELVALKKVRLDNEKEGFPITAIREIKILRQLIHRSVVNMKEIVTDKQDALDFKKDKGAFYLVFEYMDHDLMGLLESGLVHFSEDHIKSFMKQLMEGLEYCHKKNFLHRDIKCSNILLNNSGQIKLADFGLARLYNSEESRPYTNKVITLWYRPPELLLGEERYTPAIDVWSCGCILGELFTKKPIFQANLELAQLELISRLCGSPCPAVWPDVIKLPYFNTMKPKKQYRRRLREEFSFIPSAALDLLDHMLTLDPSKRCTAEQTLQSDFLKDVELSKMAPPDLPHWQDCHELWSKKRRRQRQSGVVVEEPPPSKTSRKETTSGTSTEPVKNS
# T1 sequence (O75909 whole entry partner, species assumed, the tested form may be a part): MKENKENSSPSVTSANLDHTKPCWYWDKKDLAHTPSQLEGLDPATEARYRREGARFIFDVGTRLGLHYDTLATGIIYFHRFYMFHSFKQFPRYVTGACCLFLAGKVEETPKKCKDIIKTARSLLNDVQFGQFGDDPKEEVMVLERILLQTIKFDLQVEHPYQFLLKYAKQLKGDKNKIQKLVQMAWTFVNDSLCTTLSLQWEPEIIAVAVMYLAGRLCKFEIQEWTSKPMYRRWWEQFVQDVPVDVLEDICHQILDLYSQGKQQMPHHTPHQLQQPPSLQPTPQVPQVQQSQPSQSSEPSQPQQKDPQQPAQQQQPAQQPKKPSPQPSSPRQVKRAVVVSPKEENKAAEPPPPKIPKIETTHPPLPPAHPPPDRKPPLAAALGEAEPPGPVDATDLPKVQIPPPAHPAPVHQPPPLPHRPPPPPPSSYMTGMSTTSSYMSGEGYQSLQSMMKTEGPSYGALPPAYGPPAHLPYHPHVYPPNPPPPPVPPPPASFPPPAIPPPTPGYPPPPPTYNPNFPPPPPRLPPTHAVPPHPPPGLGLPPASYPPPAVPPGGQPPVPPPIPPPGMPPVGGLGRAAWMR
# Chain of CDK9/cyclinT1 complex (P50750 whole entry, species assumed): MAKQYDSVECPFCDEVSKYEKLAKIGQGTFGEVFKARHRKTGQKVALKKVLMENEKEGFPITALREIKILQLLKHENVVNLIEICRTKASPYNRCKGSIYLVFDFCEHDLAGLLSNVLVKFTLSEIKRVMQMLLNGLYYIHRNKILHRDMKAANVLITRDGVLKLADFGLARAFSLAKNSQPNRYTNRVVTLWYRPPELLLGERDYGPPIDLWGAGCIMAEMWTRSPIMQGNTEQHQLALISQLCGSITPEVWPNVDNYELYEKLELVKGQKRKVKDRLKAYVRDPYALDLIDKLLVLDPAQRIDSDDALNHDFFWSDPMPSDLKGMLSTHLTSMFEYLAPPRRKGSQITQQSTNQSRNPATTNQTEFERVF
# Chain of CDK9/cyclinT1 complex (O60563 whole entry partner, species assumed): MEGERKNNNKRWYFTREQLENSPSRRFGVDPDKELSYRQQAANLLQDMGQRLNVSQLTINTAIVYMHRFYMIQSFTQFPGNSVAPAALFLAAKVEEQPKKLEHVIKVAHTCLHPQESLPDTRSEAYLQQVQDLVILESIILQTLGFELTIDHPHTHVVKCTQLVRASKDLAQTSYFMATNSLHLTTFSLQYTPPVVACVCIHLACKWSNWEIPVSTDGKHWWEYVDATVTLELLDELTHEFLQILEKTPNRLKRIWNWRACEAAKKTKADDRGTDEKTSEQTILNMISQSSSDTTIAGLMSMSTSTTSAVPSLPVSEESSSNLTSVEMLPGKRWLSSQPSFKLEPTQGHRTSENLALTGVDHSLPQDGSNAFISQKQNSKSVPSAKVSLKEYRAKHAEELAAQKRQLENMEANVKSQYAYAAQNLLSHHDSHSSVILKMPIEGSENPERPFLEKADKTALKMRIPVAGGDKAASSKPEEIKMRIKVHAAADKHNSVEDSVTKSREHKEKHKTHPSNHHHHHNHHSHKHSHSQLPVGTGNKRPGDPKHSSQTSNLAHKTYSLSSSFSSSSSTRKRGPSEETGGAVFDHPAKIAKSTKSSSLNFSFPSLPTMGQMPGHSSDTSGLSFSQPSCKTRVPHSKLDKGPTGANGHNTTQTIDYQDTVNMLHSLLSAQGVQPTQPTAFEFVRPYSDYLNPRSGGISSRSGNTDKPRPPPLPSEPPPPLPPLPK
SMILES,IC50 [1],IC50 (CDK2/cyclinE1 complex),IC50 (CDK9/cyclinT1 complex),IC50 [2],"IC50 ([3]; Homo sapiens, HCC70, 72 h)","IC50 (ovarian cancer A2780; Homo sapiens, A2780, 72 h)",IC50 [3],IC50 (ovarian cancer A2780)
"CP(C)(=O)c1c(C#N)ccc2c(-c3nc(N[C@@H]4CCC45CNC5)ncc3C(F)(F)F)c[nH]c12 [Compound 77, (R)-3-(2-((2-azaspiro[3.3]heptan-5-yl)amino)-5-(trifluoromethyl)pyrimidin-4-yl)-7-(dimethylphosphoryl)-1H-indole-6-carbonitrile]",> 50 µM,> 50 µM,> 50 µM,0.02 to 0.2 µM,0.02 to 0.2 µM,0.02 to 0.2 µM,,
"CP(C)(=O)c1cccc2c(-c3nc(N[C@@H]4CC[C@@]5(CCNC5)C4)ncc3C(F)(F)F)c[nH]c12 [Compound 99, (3-(2-(((5R,7R)-2-azaspiro[4.4]non-7-yl)amino)-5-(trifluoromethyl)pyrimidin-4-yl)-1H-indole-7-yl)dimethylphosphine oxide]",0.2 to 5 µM,0.2 to 5 µM,5 to 50 µM,< 0.02 µM,< 0.02 µM,< 0.02 µM,,
"FC(F)(F)c1cnc(NC2CCC3CNCC32)nc1-c1c[nH]c2nc(N3CCOCC3)ccc12 (stereo not drawn) [Compound 55, N-(4-(6-morpholinyl-1H-pyrrolo[2,3-b]pyridin-3-yl)-5-(trifluoromethyl)pyrimidin-2-yl)octahydrocyclopenta[c]pyrrol-4-amine]",> 50 µM,5 to 50 µM,> 50 µM,0.02 to 0.2 µM,0.2 to 5 µM,0.02 to 0.2 µM,,
CN(C)[C@H]1CC[C@H](Nc2ncc(C(F)(F)F)c(-c3c[nH]c4nc(C#N)ccc34)n2)C1 [Compound 66],0.2 to 5 µM,0.2 to 5 µM,5 to 50 µM,0.02 to 0.2 µM,< 0.02 µM,0.02 to 0.2 µM,,
"CP(C)(=O)c1cccc2c(-c3nc(NC4CC45CCNC5)ncc3C(F)(F)F)c[nH]c12 (single isomer, unassigned) [Compound 109]",> 50 µM,5 to 50 µM,> 50 µM,0.02 to 0.2 µM,,,0.02 to 0.2 µM,0.02 to 0.2 µM
"N#Cc1ccc2c(-c3nc(N[C@H]4CC[C@H](N)C4)ncc3C(F)(F)F)c[nH]c2n1 [Compound 65, 3-(2-(((1S,3S)-3-aminocyclopentyl)amino)-5-(trifluoromethyl)pyrimidin-4-yl)-1H-pyrrolo[2,3-b]pyridine-6-carbonitrile]",5 to 50 µM,5 to 50 µM,5 to 50 µM,< 0.02 µM,0.02 to 0.2 µM,0.02 to 0.2 µM,,
"CP(C)(=O)c1cccc2c(-c3nc(NCC4(O)CCOC4)ncc3C(F)(F)F)c[nH]c12 (single isomer, unassigned) [Compound 121]",> 50 µM,5 to 50 µM,> 50 µM,0.02 to 0.2 µM,0.02 to 0.2 µM,0.2 to 5 µM,,
"CP(C)(=O)c1c(C#N)ccc2c(-c3nc(N[C@H]4CC[C@H](N)C4)ncc3C(F)(F)F)c[nH]c12 [Compound 78, 3-(2-(((1S,3S)-3-aminocyclopentyl)amino)-5-(trifluoromethyl)pyrimidin-4-yl)-7-(dimethylphosphoryl)-1H-indole-6-carbonitrile]",5 to 50 µM,5 to 50 µM,5 to 50 µM,< 0.02 µM,< 0.02 µM,< 0.02 µM,,
CP(C)(=O)c1cccc2c(-c3nc(NCC4(O)CCOCC4)ncc3C(F)(F)F)c[nH]c12 [Compound 175],> 50 µM,5 to 50 µM,> 50 µM,0.02 to 0.2 µM,0.02 to 0.2 µM,0.2 to 5 µM,,
"C[C@H]1COCCN1c1ccc2c(-c3nc(N[C@@H]4CCC45CNC5)ncc3C(F)(F)F)c[nH]c2n1 [Compound 67, (R)—N-(4-(6-((S)-3-methylmorpholine)-1H-pyrrolo[2,3-b]pyridin-3-yl)-5-(trifluoromethyl)pyrimidin-2-yl)-2-azaspiro[3.3]heptan-5-amine]",5 to 50 µM,5 to 50 µM,5 to 50 µM,< 0.02 µM,0.02 to 0.2 µM,0.02 to 0.2 µM,,
CP(C)(=O)c1cccc2c(-c3nc(N[C@@H]4COCC[C@H]4O)ncc3C(F)(F)F)c[nH]c12 [Compound 167],> 50 µM,> 50 µM,> 50 µM,0.02 to 0.2 µM,0.2 to 5 µM,0.2 to 5 µM,,
"FC(F)(F)c1cnc(NC2CCCC3(CCNCC3)C2)nc1-c1c[nH]c2nc(N3CCOCC3)ccc12 (stereo not drawn) [Compound 41, N-(4-(6-morpholinyl-1H-pyrrolo[2,3-b]pyridin-3-yl)-5-(trifluoromethyl)pyrimidin-2-yl)-3-azaspiro[5.5]undecan-8-amine]",5 to 50 µM,5 to 50 µM,5 to 50 µM,0.02 to 0.2 µM,0.2 to 5 µM,0.02 to 0.2 µM,,
"FC(F)(F)c1cnc(NC2CCC3(CCNC3)C2)nc1-c1c[nH]c2nc(N3CCOCC3)ccc12 (stereo not drawn) [Compound 40, N-(4-(6-morpholinyl-1H-pyrrolo[2,3-b]pyridin-3-yl)-5-(trifluoromethyl)pyrimidin-2-yl)-2-azaspiro[4.4]non-7-amine]",5 to 50 µM,5 to 50 µM,5 to 50 µM,0.02 to 0.2 µM,0.2 to 5 µM,0.02 to 0.2 µM,,
